Data: EP0145484B1, “Vancomycin purification improvement and product” (ELI LILLY AND COMPANY, priority 1983, dated 1985)

Assay: Stability of bulk samples on storage
Type: physicochemical
Conditions: three lots prepared by the method of Example 2, stored at 21-28°C in polyethylene containers; over a twelve month period; 525600 min
Description: The vancomycin diphosphate crystal form provided by this invention is a highly crystalline solid when hydrated that is stable over prolonged periods of time. The stability of bulk samples of vancomycin diphosphate was determined by preparing three lots of the compound by the method of Example 2. Samples of the three individual lots were stored at 21-28°C in polyethylene containers. Various physical parameters of each of the three lots were analyzed at zero, six, twelve and eighteen months.

vancomycin diphosphate
initial biological activity retained: more than 90%
